# What was measured:
# [1] = In vitro cell culture of ^99mTc-EC-DG with or without transition chelators; type: cell-based
# Description: It may also be important to include an antioxidant and a transition chelator in the composition to prevent oxidation of the ethylenedicysteine. For example, the antioxidant may be vitamin C (ascorbic acid). However, other antioxidants known to those of ordinary skill in the art, such as tocopherol, pyridoxine, thiamine, or rutin, may also be used. Any transition chelator known to those of ordinary skill in the art may be used in conjunction with the present invention. Examples of transition chelators include glucoheptonate, gluconate, glucarate, citrate, and tartarate.
# [2] = test system: A549 human lung cancer tumor; assay: Tissue distribution in lung tumor-bearing nude mice; type: in vivo
# Procedure: Female athymic nude mice (NCr-nu/nu, NCI, Bethasda, Md.) were inoculated with human lung cancer cells (A549 tumor cell line, 3×10^6 cells/mouse, intramuscular) by one author in the mid-dorsal region. After the tumor reached 6 mm, separate biodistribution studies using ^99mTc-EC-DG and 18F-FDG were conducted. Each received ^99mTc-EC-DG or 18F-FDG intravenously (n=3/time point). The injection activity was 1-3 μCi/mouse. The injected mass of ^99mTc-EC-DG was 0.2 mg/rodent.
smiles,measurement,setting,value
O=C(N[C@H]1C(O)O[C@H](CO)[C@@H](O)[C@@H]1O)[C@@H]1C[S][Tc]23(=[O])[S]C[C@@H](C(=O)N[C@H]4C(O)O[C@H](CO)[C@@H](O)[C@@H]4O)[N]2CC[N]13 (some centres unmarked) [^99mTc-EC-DG],stability with or without transition chelators (gluconate and glucarate),[1],does not interfere with the stability
same,Blood,[2]; 30 min,1.607 ± 0.389 % of injected dose per gram of tissue weight
same,Brain,[2]; 30 min,0.058 ± 0.008 % of injected dose per gram of tissue weight
same,Heart,[2]; 30 min,0.611 ± 0.193 % of injected dose per gram of tissue weight
same,Intestine,[2]; 30 min,0.510 ± 0.093 % of injected dose per gram of tissue weight
same,Kidney,[2]; 30 min,6.726 ± 1.842 % of injected dose per gram of tissue weight
same,Liver,[2]; 30 min,5.674 ± 2.089 % of injected dose per gram of tissue weight
same,Lung,[2]; 30 min,1.048 ± 0.259 % of injected dose per gram of tissue weight
same,Muscle,[2]; 30 min,0.264 ± 0.072 % of injected dose per gram of tissue weight
same,Spleen,[2]; 30 min,3.240 ± 1.709 % of injected dose per gram of tissue weight
same,Stomach,[2]; 30 min,0.540 ± 0.113 % of injected dose per gram of tissue weight
same,Thyroid,[2]; 30 min,0.929 ± 0.212 % of injected dose per gram of tissue weight
same,Tumor,[2]; 30 min,0.787 ± 0.163 % of injected dose per gram of tissue weight
same,Tumor/Blood,[2]; 30 min,0.499 ± 0.022
same,Tumor/Lung,[2]; 30 min,0.769 ± 0.047
same,Tumor/Muscle,[2]; 30 min,3.352 ± 0.749
same,Blood,[2]; 2 h,0.977 ± 0.267 % of injected dose per gram of tissue weight
same,Brain,[2]; 2 h,0.042 ± 0.006 % of injected dose per gram of tissue weight
same,Heart,[2]; 2 h,0.336 ± 0.080 % of injected dose per gram of tissue weight
same,Intestine,[2]; 2 h,0.417 ± 0.110 % of injected dose per gram of tissue weight
same,Kidney,[2]; 2 h,5.687 ± 1.540 % of injected dose per gram of tissue weight
same,Liver,[2]; 2 h,5.807 ± 1.708 % of injected dose per gram of tissue weight
same,Lung,[2]; 2 h,0.721 ± 0.210 % of injected dose per gram of tissue weight
same,Muscle,[2]; 2 h,0.148 ± 0.039 % of injected dose per gram of tissue weight
same,Spleen,[2]; 2 h,4.205 ± 1.374 % of injected dose per gram of tissue weight
same,Stomach,[2]; 2 h,0.439 ± 0.138 % of injected dose per gram of tissue weight
same,Thyroid,[2]; 2 h,0.665 ± 0.207 % of injected dose per gram of tissue weight
same,Tumor,[2]; 2 h,0.415 ± 0.123 % of injected dose per gram of tissue weight
same,Tumor/Blood,[2]; 2 h,0.424 ± 0.022
same,Tumor/Lung,[2]; 2 h,0.587 ± 0.046
same,Tumor/Muscle,[2]; 2 h,2.754 ± 0.120
same,Blood,[2]; 4 h,0.787 ± 0.152 % of injected dose per gram of tissue weight
same,Brain,[2]; 4 h,0.042 ± 0.006 % of injected dose per gram of tissue weight
same,Heart,[2]; 4 h,0.318 ± 0.071 % of injected dose per gram of tissue weight
same,Intestine,[2]; 4 h,0.374 ± 0.073 % of injected dose per gram of tissue weight
same,Kidney,[2]; 4 h,4.318 ± 0.890 % of injected dose per gram of tissue weight
same,Liver,[2]; 4 h,6.656 ± 1.786 % of injected dose per gram of tissue weight
same,Lung,[2]; 4 h,0.606 ± 0.128 % of injected dose per gram of tissue weight
same,Muscle,[2]; 4 h,0.147 ± 0.022 % of injected dose per gram of tissue weight
same,Spleen,[2]; 4 h,5.933 ± 3.194 % of injected dose per gram of tissue weight
same,Stomach,[2]; 4 h,0.541 ± 0.119 % of injected dose per gram of tissue weight
same,Thyroid,[2]; 4 h,0.692 ± 0.119 % of injected dose per gram of tissue weight
same,Tumor,[2]; 4 h,0.414 ± 0.161 % of injected dose per gram of tissue weight
same,Tumor/Blood,[2]; 4 h,0.502 ± 0.120
same,Tumor/Lung,[2]; 4 h,0.640 ± 0.120
same,Tumor/Muscle,[2]; 4 h,2.795 ± 0.982
same,"tumor-to-tissue ratios, ^99mTc-EC-DG versus 18F-FDG","[2]; A549 nude mice, iv",higher tumor/muscle and tumor/brain ratios as a function of time

# From patent US9050378B2, “N2S2 chelate-targeting ligand conjugates” (Board of Regents, The University of Texas System, priority 2003, dated 2015)
